Experimental data reported in patent US11339171B2, “MDM2 inhibitors” (Gan & Lee Pharmaceuticals, priority 2017, dated 2022).
pIC50: −log10 of the molar value.

Legend:
[1] = test system: human osteosarcoma cell line SJSA-1; experiment: Inhibition of proliferation of human osteosarcoma cell line SJSA-1 (DAPI staining, In Cell Analyzer); conditions: Homo sapiens, SJSA-1, 72 h, read-out: IC50 (nM), inhibitory activity on proliferation of human osteosarcoma cell line SJSA-1, SJSA-1, incubated 72 h
MDM2 = biological target: T1, MDM2 (Homo sapiens, UniProt Q00987); experiment: Inhibition test of MDM2-P53 (GST-MDM2, Biotin-P53, Anti-GST-Tb, SA-XL665); assay type: binding
T1 construct: made in house
T1 sequence (Q00987 whole entry): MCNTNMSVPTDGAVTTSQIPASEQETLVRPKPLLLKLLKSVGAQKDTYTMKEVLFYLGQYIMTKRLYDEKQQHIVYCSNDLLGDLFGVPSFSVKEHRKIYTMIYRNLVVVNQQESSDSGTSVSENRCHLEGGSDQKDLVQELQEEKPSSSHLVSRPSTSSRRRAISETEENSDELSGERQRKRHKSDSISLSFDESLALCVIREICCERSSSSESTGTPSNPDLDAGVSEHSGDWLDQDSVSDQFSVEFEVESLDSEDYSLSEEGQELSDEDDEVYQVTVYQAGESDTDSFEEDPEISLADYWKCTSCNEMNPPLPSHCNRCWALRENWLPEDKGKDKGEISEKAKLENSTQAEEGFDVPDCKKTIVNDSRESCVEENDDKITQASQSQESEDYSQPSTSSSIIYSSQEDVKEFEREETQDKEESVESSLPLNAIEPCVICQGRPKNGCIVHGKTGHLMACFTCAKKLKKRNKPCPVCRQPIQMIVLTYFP
Method in brief: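 Binding was measured by TR-FRET with GST-MDM2 at 4 nM final in PBS with 0.1% BSA, 5 mM DTT and 1 mM AEBSF. Compounds were tested as twelve-point 5-fold dilutions and incubated with the detection mix for 90 min at 25 °C with shaking before plate-reader reading and curve fitting.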

| SMILES | IC50 [1] | pIC50 (MDM2) |
| --- | --- | --- |
| COc1nc(N(C)C)ncc1-c1nc2c(n1C(C)C)[C@@]1(C(=O)Nc3cc(Cl)ccc31)N(c1cccc(Cl)c1)C2=O [Example S-112, (S)-6-chloro-5′-(3-chlorophenyl)-2′-(2-(dimethylamino)-4-methoxypyrimidin-5-yl)-3′-isopropyl-3′H-spiro[dihydroindole-3,4′-pyrrolo[3,4-d]imidazole]-2,6′(5′H)-dione] | 90.6 nM | 8.94 |
| COc1cc(N(C)C)ncc1-c1nc2c(n1C(C)C)[C@@]1(C(=O)Nc3cc(Cl)ccc31)N(c1cccc(Cl)c1)C2=O [Example S-113, (S)-6-chloro-5′-(3-chlorophenyl)-2′-(6-(dimethylamino)-4-methoxypyridin-3-yl)-3′-isopropyl-3′H-spiro[dihydroindole-3,4′-pyrrolo[3,4-d]imidazole]-2,6′(5′H)-dione] | 26.7 nM | 8.90 |
| COc1nc(N2CCCC2)ncc1-c1nc2c(n1C(C)C)[C@@]1(C(=O)Nc3cc(Cl)ccc31)N(c1cc(Cl)ccc1C)C2=O [Example S-114, (S)-6-chloro-5′-(5-chloro-2-methylphenyl)-3′-isopropyl-2′-(4-methoxy-2-(pyrrolidine-1-yl)pyrimidin-5-yl)-3′H-spiro[dihydroindole-3,4′-pyrrolo[3,4-d]imidazole]-2,6′(5′H)-dione] | 10.1 nM | 8.49 |
| COc1cc(C2CC2)ccc1-c1nc2c(n1C(C)C)[C@@]1(C(=O)Nc3cc(Cl)ccc31)N(c1cccc(Cl)c1)C2=O [Example S-116, (S)-6-chloro-5′-(3-chlorophenyl)-2′-(4-cyclopropyl-2-methoxyphenyl)-3′-isopropyl-3′H-spiro[dihydroindole-3,4′-pyrrolo[3,4-d]imidazole]-2,6′(5′H)-dione] | 213 nM | 8.38 |
| COc1nc(N2CCC2)ncc1-c1nc2c(n1C(C)C)[C@@]1(C(=O)Nc3cc(Cl)ccc31)N(c1cc(Cl)ccc1C)C2=O [Example S-117, (S)-2′-(2-(12zetidine-1-yl)-4-methoxypyrimidin-5-yl)-6-chloro-5′-(5-chloro-2-methylphenyl)-3′-isopropyl-3′H-spiro[dihydroindole-3,4′-pyrrolo[3,4-d]imidazole]-2,6′(5′H)-dione] | 14.4 nM | 8.67 |
| COc1nc(C)ncc1-c1nc2c(n1C(C)C)[C@@]1(C(=O)Nc3cc(Cl)ccc31)N(c1cc(Cl)ccc1C)C2=O [Example S-118, (S)-6-chloro-5′-(5-chloro-2-methylphenyl)-3′-isopropyl-2′-(4-methoxy-2-methylpyrimidin-5-yl)-3′H-spiro[dihydroindole-3,4′-pyrrolo[3,4-d]imidazole]-2,6′(5′H)-dione] | 107 nM | 8.45 |
| CCN(C)c1ncc(-c2nc3c(n2C(C)C)[C@@]2(C(=O)Nc4cc(Cl)ccc42)N(c2cc(Cl)ccc2C)C3=O)c(OC)n1 [Example S-119, (S)-6-chloro-5′-(5-chloro-2-methylphenyl)-2′-(2-(ethyl(methyl)amino)-4-methoxypyrimidin-5-yl)-3′-isopropyl-3′H-spiro[dihydroindole-3,4′-pyrrolo[3,4-d]imidazole]-2,6′(5′H)-dione] | 20 nM | 8.62 |
| COc1cc(OC(F)(F)F)ccc1-c1nc2c(n1C(C)C)[C@@]1(C(=O)Nc3cc(Cl)ccc31)N(c1cccc(Cl)c1)C2=O [Example S-120, (S)-6-chloro-5′-(3-chlorophenyl)-3′-isopropyl-2′-(2-methoxy-4-(trifluoromethoxy)phenyl)-3′H-spiro[dihydroindole-3,4′-pyrrolo[3,4-d]imidazole]-2,6′(5′H)-dione] | 364 nM | 8.05 |
| COc1nc(C2CC2)ncc1-c1nc2c(n1C(C)C)[C@@]1(C(=O)Nc3cc(Cl)ccc31)N(c1cccc(Cl)c1)C2=O [Example S-122, (S)-6-chloro-5′-(3-chlorophenyl)-2′-(2-cyclopropyl-4-methoxypyrimidin-5-yl)-3′-isopropyl-3′H-spiro[dihydroindole-3,4′-pyrrolo[3,4-d]imidazole]-2,6′(5′H)-dione] | 117 nM | 8.56 |
| CCOc1ncc(-c2nc3c(n2C(C)C)[C@@]2(C(=O)Nc4cc(Cl)ccc42)N(c2cccc(Cl)c2)C3=O)c(OC)n1 [Example S-123, (S)-6-chloro-5′-(3-chlorophenyl)-2′-(2-ethoxy-4-methoxypyrimidin-5-yl)-3′-isopropyl-3′H-spiro[dihydroindole-3,4′-pyrrolo[3,4-d]imidazole]-2,6′(5′H)-dione] | 321 nM | 8.68 |
| COc1nc(OC(C)C)ncc1-c1nc2c(n1C(C)C)[C@@]1(C(=O)Nc3cc(Cl)ccc31)N(c1cccc(Cl)c1)C2=O [Example S-124, (S)-6-chloro-5′-(3-chlorophenyl)-2′-(2-isopropoxy-4-methoxypyrimidin-5-yl)-3′-isopropyl-3′H-spiro[dihydroindole-3,4′-pyrrolo[3,4-d]imidazole]-2,6′(5′H)-dione] | 129 nM | 8.54 |
| COc1nc(OC(C)C)ncc1-c1nc2c(n1C(C)C)[C@@]1(C(=O)Nc3cc(Cl)ccc31)N(c1cc(Cl)ccc1C)C2=O [Example S-126, (S)-6-chloro-5′-(5-chloro-2-methylphenyl)-2′-(2-isopropoxy-4-methoxypyrimidin-5-yl)-3′-isopropyl-3′H-spiro[dihydroindole-3,4′-pyrrolo[3,4-d]imidazole]-2,6′(5′H)-dione] | 79.6 nM | 8.82 |
| CCOc1ncc(-c2nc3c(n2C(C)C)[C@@]2(C(=O)Nc4cc(Cl)ccc42)N(c2cc(Cl)ccc2C)C3=O)c(OC)n1 [Example S-127, (S)-6-chloro-5′-(5-chloro-2-methylphenyl)-2′-(2-ethoxy-4-methoxypyrimidin-5-yl)-3′-isopropyl-3′H-spiro[dihydroindole-3,4′-pyrrolo[3,4-d]imidazole]-2,6′(5′H)-dione] | 83.2 nM | 8.56 |
| COc1cc(C#N)ccc1-c1nc2c(n1C(C)C)[C@@]1(C(=O)Nc3cc(Cl)ccc31)N(c1cccc(Cl)c1)C2=O [Example S-128, (S)-4-(6-chloro-5′-(3-chlorophenyl)-3′-isopropyl-2,6′-dioxo-5′,6′-dihydro-3′H-spiro[dihydroindole-3,4′-pyrrolo[3,4-d]imidazole]-2′-yl)-3-methoxybenzonitrile] | 145 nM | 8.96 |
| COc1cc(C(F)(F)F)ccc1-c1nc2c(n1C(C)C)[C@@]1(C(=O)Nc3cc(Cl)ccc31)N(c1cccc(Cl)c1)C2=O [Example S-129, (S)-6-chloro-5′-(3-chlorophenyl)-3′-isopropyl-2′-(2-methoxy-4-(trifluoromethyl)phenyl)-3′H-spiro[dihydroindole-3,4′-pyrrolo[3,4-d]imidazole]-2,6′(5′H)-dione] | 146 nM | 8.42 |
| COc1nc(OC(C)C)ncc1-c1nc2c(n1C(C)C)[C@@]1(C(=O)Nc3cc(Cl)ccc31)N(c1cc(Cl)cnc1C)C2=O [Example S-136, (S)-6-chloro-5′-(5-chloro-2-methylpyridin-3-yl)-2′-(2-isopropoxy-4-methoxypyrimidin-5-yl)-3′-isopropyl-3′H-spiro[dihydroindole-3,4′-pyrrolo[3,4-d]imidazole]-2,6′(5′H)-dione] | 108 nM | 8.63 |
| CCOc1cc(OC)c(-c2nc3c(n2C(C)C)[C@@]2(C(=O)Nc4cc(Cl)ccc42)N(c2cc(F)cc(Cl)c2)C3=O)cn1 [Example S-139, (S)-6-chloro-5′-(3-chloro-5-fluorophenyl)-2′-(6-ethoxy-4-methoxypyridin-3-yl)-3′-isopropyl-3′H-spiro[dihydroindole-3,4′-pyrrolo[3,4-d]imidazole]-2,6′(5′H)-dione] | 50.7 nM | 8.87 |
| COc1nc(OCC(F)(F)F)ncc1-c1nc2c(n1C(C)C)[C@@]1(C(=O)Nc3cc(Cl)ccc31)N(c1cc(Cl)ccc1C)C2=O [Example S-141, (S)-6-chloro-5′-(5-chloro-2-methylphenyl)-3′-isopropyl-2′-(4-methoxy-2-(2,2,2-trifluoroethoxy)pyrimidin-5-yl)-3′H-spiro[dihydroindole-3,4′-pyrrolo[3,4-d]imidazole]-2,6′(5′H)-dione] | 73.6 nM | 8.47 |
| COc1cc(C(F)(F)F)ncc1-c1nc2c(n1C(C)C)[C@@]1(C(=O)Nc3cc(Cl)ccc31)N(c1cccc(Cl)c1)C2=O [Example S-142, (S)-6-chloro-5′-(3-chlorophenyl)-3′-isopropyl-2′-(4-methoxy-6-(trifluoromethyl)pyridin-3-yl)-3′H-spiro[dihydroindole-3,4′-pyrrolo[3,4-d]imidazole]-2,6′(5′H)-dione] | 138 nM | 8.84 |
| COc1cc(C2CC2)ncc1-c1nc2c(n1C(C)C)[C@@]1(C(=O)Nc3cc(Cl)ccc31)N(c1cc(Cl)cnc1C)C2=O [Example S-143, (S)-6-chloro-5′-(5-chloro-2-methylpyridin-3-yl)-2′-(6-cyclopropyl-4-methoxypyridin-3-yl)-3′-isopropyl-3′H-spiro[dihydroindole-3,4′-pyrrolo[3,4-d]imidazole]-2,6′(5′H)-dione] | 24.9 nM | 8.96 |
| COc1cc(C(F)(F)F)ccc1-c1nc2c(n1C(C)C)[C@@]1(C(=O)Nc3cc(Cl)ccc31)N(c1cc(Cl)cnc1C)C2=O [Example S-144, (S)-6-chloro-5′-(5-chloro-2-methylpyridin-3-yl)-3′-isopropyl-2′-(2-methoxy-4-(trifluoromethyl)phenyl)-3′H-spiro[dihydroindole-3,4′-pyrrolo[3,4-d]imidazole]-2,6′(5′H)-dione] | 101 nM | 8.42 |
| COc1cc(C2CC2)ccc1-c1nc2c(n1C(C)C)[C@@]1(C(=O)Nc3cc(Cl)ccc31)N(c1cc(Cl)cnc1C)C2=O [Example S-145, (S)-6-chloro-5′-(5-chloro-2-methylpyridin-3-yl)-2′-(4-cyclopropyl-2-methoxyphenyl)-3′-isopropyl-3′H-spiro[dihydroindole-3,4′-pyrrolo[3,4-d]imidazole]-2,6′(5′H)-dione] | 28.2 nM | 8.69 |
